From US11000033B2, “Ketone or oxime compound, and herbicide” (NISSAN CHEMICAL CORPORATION, priority 2014, dated 2021)

Experiments:
Type in all cases: in vivo
Cyperus difformis = assay: Test Example 3: herbicidal effect by foliage application, Wagner pot (symbol E); settings: application herbicide amount 320 g/ha
How it was run: (§1)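 Scoring took place 3 weeks after application, using fixed criteria. Plants had been raised from seed for 14 days at 25 to 30 °C in submerged alluvial soil before a diluted emulsion of the test compound was sprayed uniformly on the leaves.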

rice plant = assay: Test Example 5: effect on crop by foliage application, plastic box (symbol b); settings: 320 g/ha, 3 weeks after application
How it was run: (§2)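 Greenhouse culture at 25° C. to 30° C. followed spot-like sowing into sterilized diluvial soil, with seed covered by roughly 1.5 cm of soil.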

[1] = test system: Echinochloa crus-galli var. crus-galli; assay: Test Example 4: herbicidal effect by soil treatment (symbol H); settings: application herbicide amount 320 g/ha
How it was run: (§3)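 Seeds were sown in sterilized diluvial soil, covered with about 1.5 cm of soil, and the soil surface was sprayed with a water-diluted emulsion of the compound at a predetermined rate. Plants grew in a greenhouse at 25° C. to 30° C.; effects were scored visually 3 weeks after application.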

Lolium multiflorum Lam. = assay: Test Example 4: herbicidal effect by soil treatment (symbol K); settings: application herbicide amount 320 g/ha
How it was run: as §3

Galium spurium = assay: Test Example 5: herbicidal effect by foliage application, plastic box (symbol Q); settings: 320 g/ha, 3 weeks after application
How it was run: (§4)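 Seeds were sown in sterilized diluvial soil, covered with about 1.5 cm of soil and grown 14 days in a greenhouse at 25° C. to 30° C. An emulsifiable formulation diluted in water to a set rate was sprayed over foliage, and injury was scored 3 weeks later.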

Alopecurus myosuroides = assay: Test Example 5: herbicidal effect by foliage application, plastic box (symbol J); settings: 320 g/ha, 3 weeks after application
How it was run: as §4

Chenopodium album [2] = assay: Test Example 5: herbicidal effect by foliage application, plastic box (symbol O); settings: 320 g/ha, 3 weeks after application
How it was run: as §4

Setaria viridis = assay: Test Example 5: herbicidal effect by foliage application, plastic box (symbol G); settings: 320 g/ha, 3 weeks after application
How it was run: as §4

beet = assay: Test Example 4: effect on crop by soil treatment (symbol f); settings: application herbicide amount 320 g/ha
How it was run: (§5)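 Greenhouse culture at 25° C. to 30° C. followed sowing of seed in spots on sterilized diluvial soil with a soil cover close to 1.5 cm thick.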

rice = assay: Test Example 4: effect on crop by soil treatment (symbol b); settings: application herbicide amount 320 g/ha
How it was run: as §5

soybean = assay: Test Example 5: effect on crop by foliage application, plastic box (symbol d); settings: 320 g/ha, 3 weeks after application
How it was run: as §2

Digitaria ciliaris = assay: Test Example 4: herbicidal effect by soil treatment (symbol F); settings: application herbicide amount 320 g/ha
How it was run: as §3

Abutilon theophrasti = assay: Test Example 5: herbicidal effect by foliage application, plastic box (symbol M); settings: 320 g/ha, 3 weeks after application
How it was run: as §4

Chenopodium album [3] = assay: Test Example 4: herbicidal effect by soil treatment (symbol O); settings: application herbicide amount 320 g/ha
How it was run: as §3

Leptochloa chinensis = assay: Test Example 3: herbicidal effect by foliage application, Wagner pot (symbol D); settings: application herbicide amount 320 g/ha
How it was run: as §1

Scirpus juncoides = assay: Test Example 1: herbicidal activity, application before weed generation in submerged conditions (symbol B); settings: application herbicide amount 320 g/ha
How it was run: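 Ratings (5: ≥90%, near complete withering; 4: 70–<90%; 3: 40–<70%; 2: 20–<40%; 1: 5–<20%; 0: ≤5%) were assigned 3 weeks after the diluted emulsion was applied to the water surface of freshly sown, submerged pots.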

Amaranthus retroflexus = assay: Test Example 4: herbicidal effect by soil treatment (symbol N); settings: application herbicide amount 320 g/ha
How it was run: as §3

Stellaria media = assay: Test Example 5: herbicidal effect by foliage application, plastic box (symbol P); settings: 320 g/ha, 3 weeks after application
How it was run: as §4

SMILES | herbicidal effect on E, grade 0-5 (Cyperus difformis) | b: directly sowed rice plant, effect on crop grade (rice plant) | H: Echinochloa crus-galli var. crus-galli, herbicidal effect grade [1] | K: Lolium multiflorum Lam., herbicidal effect grade (Lolium multiflorum Lam.) | Q: Galium spurium, herbicidal effect grade (Galium spurium) | J: Alopecurus myosuroides, herbicidal effect grade (Alopecurus myosuroides) | O: Chenopodium album, herbicidal effect grade (Chenopodium album [2]) | G: Setaria viridis, herbicidal effect grade (Setaria viridis) | f: beet, effect on crop grade (beet) | b: directly sowed rice plant, effect on crop grade (rice) | d: soybean, effect on crop grade (soybean) | F: Digitaria ciliaris, herbicidal effect grade (Digitaria ciliaris) | M: Abutilon theophrasti, herbicidal effect grade (Abutilon theophrasti) | O: Chenopodium album, herbicidal effect grade (Chenopodium album [3]) | herbicidal effect on D (Leptochloa chinensis), grade 0-5 (Leptochloa chinensis) | Herbicidal effect grade, B: Scirpus juncoides (Scirpus juncoides) | N: Amaranthus retroflexus, herbicidal effect grade (Amaranthus retroflexus) | P: Stellaria media, herbicidal effect grade (Stellaria media)
CCc1cc(-n2cc(Cl)cn2)cc(C)c1C1=C(O)CC(CC(C)=NOC)C1=O (mixture of isomers) [6-005] | 3 (Herbicidal ratio of 40% or higher and lower than 70%) | 5 (Herbicidal ratio of 90% or more (almost completely withered)) | 5 (Herbicidal ratio of 90% or more (almost completely withered)) | 5 (Herbicidal ratio of 90% or more (almost completely withered)) | 3 (Herbicidal ratio of 40% or higher and lower than 70%) | 5 (Herbicidal ratio of 90% or more (almost completely withered)) | 3 (Herbicidal ratio of 40% or higher and lower than 70%) | 5 (Herbicidal ratio of 90% or more (almost completely withered)) | 0 (Herbicidal ratio of 5% or lower (almost no effect)) | 5 (Herbicidal ratio of 90% or more (almost completely withered)) | 4 (Herbicidal ratio of 70% or higher and lower than 90%) | 5 (Herbicidal ratio of 90% or more (almost completely withered)) | 5 (Herbicidal ratio of 90% or more (almost completely withered)) | 0 (Herbicidal ratio of 5% or lower (almost no effect)) | 5 (Herbicidal ratio of 90% or more (almost completely withered)) | 5 (Herbicidal ratio of 90% or more (almost completely withered)) | 0 (Herbicidal ratio of 5% or lower (almost no effect)) | –
CC#Cc1cc(C)c(C2=C(O)CC(CC(C)=NOC)C2=O)c(CC)c1 (mixture of isomers) [6-006] | 5 (Herbicidal ratio of 90% or more (almost completely withered)) | 4 (Herbicidal ratio of 70% or higher and lower than 90%) | 5 (Herbicidal ratio of 90% or more (almost completely withered)) | 5 (Herbicidal ratio of 90% or more (almost completely withered)) | 0 (Herbicidal ratio of 5% or lower (almost no effect)) | 5 (Herbicidal ratio of 90% or more (almost completely withered)) | 0 (Herbicidal ratio of 5% or lower (almost no effect)) | 3 (Herbicidal ratio of 40% or higher and lower than 70%) | 0 (Herbicidal ratio of 5% or lower (almost no effect)) | 5 (Herbicidal ratio of 90% or more (almost completely withered)) | 0 (Herbicidal ratio of 5% or lower (almost no effect)) | 5 (Herbicidal ratio of 90% or more (almost completely withered)) | 0 (Herbicidal ratio of 5% or lower (almost no effect)) | 0 (Herbicidal ratio of 5% or lower (almost no effect)) | 5 (Herbicidal ratio of 90% or more (almost completely withered)) | 5 (Herbicidal ratio of 90% or more (almost completely withered)) | 3 (Herbicidal ratio of 40% or higher and lower than 70%) | –
COCC(=O)CC1CC(O)=C(c2c(C)cc(C)cc2C)C1=O (stereo not drawn) [2-007] | 5 (Herbicidal ratio of 90% or more (almost completely withered)) | 3 (Herbicidal ratio of 40% or higher and lower than 70%) | 5 (Herbicidal ratio of 90% or more (almost completely withered)) | 5 (Herbicidal ratio of 90% or more (almost completely withered)) | 0 (Herbicidal ratio of 5% or lower (almost no effect)) | 4 (Herbicidal ratio of 70% or higher and lower than 90%) | 0 (Herbicidal ratio of 5% or lower (almost no effect)) | 0 (Herbicidal ratio of 5% or lower (almost no effect)) | 0 (Herbicidal ratio of 5% or lower (almost no effect)) | 5 (Herbicidal ratio of 90% or more (almost completely withered)) | 0 (Herbicidal ratio of 5% or lower (almost no effect)) | 5 (Herbicidal ratio of 90% or more (almost completely withered)) | 0 (Herbicidal ratio of 5% or lower (almost no effect)) | 0 (Herbicidal ratio of 5% or lower (almost no effect)) | 5 (Herbicidal ratio of 90% or more (almost completely withered)) | 2 (Herbicidal ratio of 20% or higher and lower than 40%) | 0 (Herbicidal ratio of 5% or lower (almost no effect)) | 2 (Herbicidal ratio of 20% or higher and lower than 40%)
CCOC(=O)C(C(=O)c1ccccc1)C1CC(O)=C(c2c(C)cc(C)cc2C)C1=O (stereo not drawn) [2-008] | 0 (Herbicidal ratio of 5% or lower (almost no effect)) | 4 (Herbicidal ratio of 70% or higher and lower than 90%) | 0 (Herbicidal ratio of 5% or lower (almost no effect)) | 3 (Herbicidal ratio of 40% or higher and lower than 70%) | 0 (Herbicidal ratio of 5% or lower (almost no effect)) | 3 (Herbicidal ratio of 40% or higher and lower than 70%) | 0 (Herbicidal ratio of 5% or lower (almost no effect)) | 3 (Herbicidal ratio of 40% or higher and lower than 70%) | 0 (Herbicidal ratio of 5% or lower (almost no effect)) | 0 (Herbicidal ratio of 5% or lower (almost no effect)) | 1 (Herbicidal ratio of 5% or higher and lower than 20%) | 0 (Herbicidal ratio of 5% or lower (almost no effect)) | 0 (Herbicidal ratio of 5% or lower (almost no effect)) | 0 (Herbicidal ratio of 5% or lower (almost no effect)) | 0 (Herbicidal ratio of 5% or lower (almost no effect)) | 0 (Herbicidal ratio of 5% or lower (almost no effect)) | 0 (Herbicidal ratio of 5% or lower (almost no effect)) | 0 (Herbicidal ratio of 5% or lower (almost no effect))
CCc1cc(C)cc(C)c1C1=C(O)CC(CC(C)=NOC)C1=O (stereo not drawn) [6-007] | 5 (Herbicidal ratio of 90% or more (almost completely withered)) | 5 (Herbicidal ratio of 90% or more (almost completely withered)) | 5 (Herbicidal ratio of 90% or more (almost completely withered)) | 5 (Herbicidal ratio of 90% or more (almost completely withered)) | 0 (Herbicidal ratio of 5% or lower (almost no effect)) | 5 (Herbicidal ratio of 90% or more (almost completely withered)) | 0 (Herbicidal ratio of 5% or lower (almost no effect)) | 5 (Herbicidal ratio of 90% or more (almost completely withered)) | 0 (Herbicidal ratio of 5% or lower (almost no effect)) | 5 (Herbicidal ratio of 90% or more (almost completely withered)) | 2 (Herbicidal ratio of 20% or higher and lower than 40%) | 5 (Herbicidal ratio of 90% or more (almost completely withered)) | 1 (Herbicidal ratio of 5% or higher and lower than 20%) | 0 (Herbicidal ratio of 5% or lower (almost no effect)) | 5 (Herbicidal ratio of 90% or more (almost completely withered)) | 5 (Herbicidal ratio of 90% or more (almost completely withered)) | 3 (Herbicidal ratio of 40% or higher and lower than 70%) | –
